Test results reported in the supplement of paper PMC11061612.

Tests used:
Assay in all cases: combination Emax (second highest fraction inhibited in the dose matrix, 72 h); higher = more inhibition; extreme values may be limits of the assay
HuO9 (Osteosarcoma) = test system: HuO9 (Osteosarcoma)
Method in brief: (§1)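 After 24 hours at 37°C and 5% CO2 in 1536-well plates, cells in DMEM/F12 or RPMI plus 10% FBS received two-drug dose matrices for 72 hours. Viability came from CellTiter-Glo 2.0 luminescence and was scaled as inhibition, anchored at 0 by vehicle wells and at 1 by blank wells. Combination Emax is taken as the second-highest inhibition in the matrix, and Bliss excess as the observed combination effect less EA + EB − EA·EB, with EA and EB the single-agent effects.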

SK-MEL-1 (Melanoma) = test system: SK-MEL-1 (Melanoma)
Method in brief: as §1

[1] = test system: SLVL (B-Cell Non-Hodgkin's Lymphoma)
Method in brief: as §1

[2] = test system: EKVX (Non-Small Cell Lung Carcinoma)
Method in brief: as §1

[3] = test system: CAL-39 (Other Solid Carcinomas)
Method in brief: as §1

[4] = test system: EFM-192A (Breast Carcinoma)
Method in brief: as §1

[5] = test system: SKN-3 (Head and Neck Carcinoma)
Method in brief: as §1

MCF7 (Breast Carcinoma) = test system: MCF7 (Breast Carcinoma)
Method in brief: as §1

[6] = test system: SK-LMS-1 (Other Solid Carcinomas)
Method in brief: as §1

[7] = test system: SW948 (Colorectal Carcinoma)
Method in brief: as §1

[8] = test system: SW48 (Colorectal Carcinoma)
Method in brief: as §1

[9] = test system: HCT-116 (Colorectal Carcinoma)
Method in brief: as §1

[10] = test system: HCC-827 (Lung Adenocarcinoma)
Method in brief: as §1

Saos-2 (Osteosarcoma) = test system: Saos-2 (Osteosarcoma)
Method in brief: as §1

[11] = test system: NCI-H1688 (Small Cell Lung Carcinoma)
Method in brief: as §1

H4 (Low Grade Glioma) = test system: H4 (Low Grade Glioma)
Method in brief: as §1

MSTO-211H (Mesothelioma) = test system: MSTO-211H (Mesothelioma)
Method in brief: as §1

[12] = test system: NOMO-1 (Acute Myeloid Leukemia)
Method in brief: as §1

[13] = test system: D-283MED (Other Solid Carcinomas)
Method in brief: as §1

[14] = test system: RCC10RGB (Kidney Carcinoma)
Method in brief: as §1

SMILES	combination Emax (HuO9 (Osteosarcoma))	combination Emax (SK-MEL-1 (Melanoma))	combination Emax [1]	combination Emax [2]	combination Emax [3]	combination Emax [4]	combination Emax [5]	combination Emax (MCF7 (Breast Carcinoma))	combination Emax [6]	combination Emax [7]	combination Emax [8]	combination Emax [9]	combination Emax [10]	combination Emax (Saos-2 (Osteosarcoma))	combination Emax [11]	combination Emax (H4 (Low Grade Glioma))	combination Emax (MSTO-211H (Mesothelioma))	combination Emax [12]	combination Emax [13]	combination Emax [14]
CC1(C)CCC(CN2CCN(c3ccc(C(=O)NS(=O)(=O)c4ccc(NCC5CCOCC5)c([N+](=O)[O-])c4)c(Oc4cnc5[nH]ccc5c4)c3)CC2)=C(c2ccc(Cl)cc2)C1 [Venetoclax] + COc1cc(Nc2ncc3c(n2)-c2ccc(Cl)cc2C(c2c(F)cccc2OC)=NC3)ccc1C(=O)O [Alisertib] (first compound max 1 µM, 7x7, partner max 10 µM)	0.682	0.351	0.932	0.646	0.704	0.167	0.374	0.411	0.579	0.926	0.887	0.581	0.457	0.682	0.398	0.814	0.734	0.884	0.85	0.568
CCc1c2c(nc3ccc(O)cc13)-c1cc3c(c(=O)n1C2)COC(=O)[C@]3(O)CC [SN-38] + CN(C)CCCOc1ccc(-c2ccc3ncc4c(c3c2)n(C2CCOCC2)c(=O)n4C)cn1 [AZD0156] (first compound max 0.3 µM, 7x7, partner max 1 µM)	0.989	0.538	0.972	0.188	0.896	0.174	0.47	0.686	0.914	0.746	0.826	0.826	0.526	0.944	0.322	0.931	0.804	0.98	0.954	0.689
COc1cccc(OCCCN)c1-c1cc(Nc2cnc(C#N)cn2)n[nH]1 [Prexasertib] + CCc1c2c(nc3ccc(O)cc13)-c1cc3c(c(=O)n1C2)COC(=O)[C@]3(O)CC [SN-38] (first compound max 1 µM, 7x7, partner max 0.3 µM)	0.995	0.623	0.968	0.379	0.919	0.318	0.885	0.685	0.891	0.94	0.889	0.901	0.749	0.887	0.941	0.941	0.808	1	0.99	0.825
Cc1cc2ncnn2cc1Nc1ncc2c(n1)n(C1CCOCC1)c(=O)n2C [AZD7648] + CN(C)CCCOc1ccc(-c2ccc3ncc4c(c3c2)n(C2CCOCC2)c(=O)n4C)cn1 [AZD0156] (first compound max 10 µM, 7x7, partner max 1 µM)	0.369	0.347	0.404	0.315	0.322	0.374	0.111	0.373	0.428	0.545	0.329	0.317	0.297	0.171	0.147	0.448	0.33	0.461	0.496	0.3
CN(CCO)CC[C@H](CSc1ccccc1)Nc1ccc(S(=O)(=O)NC(=O)c2ccc(N3CCC([C@@H](O)c4ccccc4-c4ccc(Cl)cc4)CC3)cc2)cc1S(=O)(=O)C(F)(F)F [AZD4320] + C[C@@H]1COCCN1C2=NC(=NC(=C2)C3(CC3)[S@](=N)(=O)C)C4=C5C=CNC5=NC=C4 [AZD6738] (first compound max 1 µM, 7x7, partner max 10 µM)	0.956	0.597	0.94	0.252	0.619	0.349	0.546	0.656	0.866	0.563	0.954	0.778	0.551	0.673	0.728	0.9	0.959	0.972	0.992	0.492
CC1(C)CCC(CN2CCN(c3ccc(C(=O)NS(=O)(=O)c4ccc(NCC5CCOCC5)c([N+](=O)[O-])c4)c(Oc4cnc5[nH]ccc5c4)c3)CC2)=C(c2ccc(Cl)cc2)C1 [Venetoclax] + C[C@@H]1COCCN1C2=NC(=NC(=C2)C3(CC3)[S@](=N)(=O)C)C4=C5C=CNC5=NC=C4 [AZD6738] (first compound max 1 µM, 7x7, partner max 10 µM)	0.814	0.391	0.939	0.214	0.397	0.299	0.576	0.705	0.548	0.595	0.752	0.671	0.33	0.584	0.451	0.768	0.596	0.973	0.954	0.5
CC1(C)CCC(CN2CCN(c3ccc(C(=O)NS(=O)(=O)c4ccc(NCC5CCOCC5)c([N+](=O)[O-])c4)c(Oc4cnc5[nH]ccc5c4)c3)CC2)=C(c2ccc(Cl)cc2)C1 [Venetoclax] + C1CN(CCC1(C(=O)N[C@@H](CCO)C2=CC=C(C=C2)Cl)N)C3=NC=NC4=C3C=CN4 [Capivasertib] (first compound max 1 µM, 7x7, partner max 3 µM)	0.488	0.208	0.786	0.302	0.279	0.379	0.0823	0.42	0.271	0.646	0.267	0.309	0.273	0.412	0.294	0.473	0.251	0.919	0.582	0.197
Cc1c2c(nn1C)CSCc1cc(n(C)n1)CSc1cc(c3ccccc3c1)OCCCc1c(C(=O)O)n(C)c3c-2c(Cl)ccc13 [AZD5991] + C1CN(CCC1(C(=O)N[C@@H](CCO)C2=CC=C(C=C2)Cl)N)C3=NC=NC4=C3C=CN4 [Capivasertib] (first compound max 1 µM, 7x7, partner max 3 µM)	1	0.118	0.567	0.301	0.384	0.67	0.121	0.687	0.302	0.569	0.28	0.24	0.314	0.52	0.322	0.495	0.245	0.909	0.367	0.298
COc1cccc(OCCCN)c1-c1cc(Nc2cnc(C#N)cn2)n[nH]1 [Prexasertib] + C[C@@H]1COCCN1C2=NC(=NC(=C2)C3(CC3)[S@](=N)(=O)C)C4=C5C=CNC5=NC=C4 [AZD6738] (first compound max 1 µM, 7x7, partner max 10 µM)	0.855	0.624	0.952	0.24	0.524	0.188	0.637	0.703	0.637	0.821	0.81	0.747	0.549	0.704	0.535	0.91	0.852	1	0.988	0.45
CC1(C)CCC(CN2CCN(c3ccc(C(=O)NS(=O)(=O)c4ccc(NCC5CCOCC5)c([N+](=O)[O-])c4)c(Oc4cnc5[nH]ccc5c4)c3)CC2)=C(c2ccc(Cl)cc2)C1 [Venetoclax] + Cc1cc2ncnn2cc1Nc1ncc2c(n1)n(C1CCOCC1)c(=O)n2C [AZD7648] (first compound max 1 µM, 7x7, partner max 10 µM)	0.426	0.308	0.709	0.161	0.247	0.25	0.0976	0.31	0.307	0.459	0.369	0.259	0.292	0.325	0.245	0.322	0.22	0.922	0.673	0.205
COc1cccc(OCCCN)c1-c1cc(Nc2cnc(C#N)cn2)n[nH]1 [Prexasertib] + CN(C)CCCOc1ccc(-c2ccc3ncc4c(c3c2)n(C2CCOCC2)c(=O)n4C)cn1 [AZD0156] (first compound max 1 µM, 7x7, partner max 1 µM)	0.785	0.605	0.951	0.265	0.258	0.233	0.616	0.741	0.612	0.804	0.767	0.536	0.552	0.644	0.568	0.917	0.888	1	0.99	0.484
C[C@@H]1COCCN1c1cc(C2([S@](C)(=N)=O)CC2)nc(-c2ccnc3[nH]ccc23)n1 [AZD6738] + O=C(c1cc(Cc2n[nH]c(=O)c3ccccc23)ccc1F)N1CCN(C(=O)C2CC2)CC1 [Olaparib] (first compound max 10 µM, 7x7, partner max 10 µM)	0.857	0.312	0.834	0.32	0.526	0.32	0.391	0.573	0.529	–	0.72	0.78	0.498	0.466	0.203	0.791	0.705	0.908	1	0.441
